The target in the assay is MAPK14 (UniProt Q16539).
Sequence of MAPK14 (Q16539 whole entry, looked up): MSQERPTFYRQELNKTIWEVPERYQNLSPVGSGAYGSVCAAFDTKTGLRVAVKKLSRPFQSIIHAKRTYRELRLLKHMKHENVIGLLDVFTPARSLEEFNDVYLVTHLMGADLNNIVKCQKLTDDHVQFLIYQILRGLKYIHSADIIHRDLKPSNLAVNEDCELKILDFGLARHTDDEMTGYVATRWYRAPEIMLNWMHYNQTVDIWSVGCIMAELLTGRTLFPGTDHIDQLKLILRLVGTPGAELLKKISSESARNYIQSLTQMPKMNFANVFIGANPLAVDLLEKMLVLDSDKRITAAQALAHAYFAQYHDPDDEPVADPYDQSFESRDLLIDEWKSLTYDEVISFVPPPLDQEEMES
The molecule `OCC(CO)n1cnc(-c2ccc(F)cc2)c1-c1ccnc(Oc2ccc(F)cc2)n1` came in with an IC50 of under 50 µM.

Molecule `Cc1ccc(Oc2nccc(-c3c(-c4ccc(F)cc4)ncn3[C@@H](C)CO)n2)cc1` gave an IC50 of under 50 µM.

Regarding `CC[C@H](CO)n1cnc(-c2ccc(F)cc2)c1-c1ccnc(Oc2ccc(Cl)cc2)n1`, the IC50 is under 50 µM.

The molecule `OC[C@H](c1ccccc1)n1cnc(-c2ccc(F)cc2)c1-c1ccnc(Oc2ccccc2)n1` registered an IC50 of under 50 µM.

As for `C[C@H](CCN1CCOCC1)n1cnc(-c2ccc(F)cc2)c1-c1ccnc(Oc2ccccc2)n1`, the IC50 was under 50 µM.

In turn, `CC[C@@H](CO)n1cnc(-c2ccc(F)cc2)c1-c1ccnc(Oc2ccc(C)cc2)n1` registered an IC50 of under 50 µM.

Molecule `Cc1ccc(Oc2nccc(-c3c(-c4ccc(F)cc4)ncn3C(CO)CO)n2)cc1` yielded an IC50 of under 50 µM.

In the case of `C[C@H](CO)n1cnc(-c2ccc(F)cc2)c1-c1ccnc(Oc2ccc(F)cc2)n1`, the IC50 is under 50 µM.

`CC[C@@H](CO)n1cnc(-c2ccc(F)cc2)c1-c1ccnc(Oc2ccc(Cl)cc2)n1` had an IC50 of under 50 µM.

`C[C@@H](CO)n1cnc(-c2ccc(F)cc2)c1-c1ccnc(Oc2ccc(F)cc2)n1` displayed an IC50 of under 50 µM.

`C[C@@H](CO)n1cnc(-c2ccc(F)cc2)c1-c1ccnc(Oc2ccc(Cl)cc2)n1` showed an IC50 of under 50 µM.

For `CC[C@H](CO)n1cnc(-c2ccc(F)cc2)c1-c1ccnc(Oc2ccccc2)n1`, the IC50 was under 50 µM.

Turning to `OC[C@@H](c1ccccc1)n1cnc(-c2ccc(F)cc2)c1-c1ccnc(Oc2ccccc2)n1`, the 50% inhibitory concentration (IC50) is under 50 µM.

In the case of `CC[C@@H](CO)n1cnc(-c2ccc(F)cc2)c1-c1ccnc(Oc2ccccc2)n1`, the IC50 is under 50 µM.

Consider `CC[C@H](CO)n1cnc(-c2ccc(F)cc2)c1-c1ccnc(Oc2ccc(C)cc2)n1`, for which the IC50 is under 50 µM.

As to `OCC(CO)n1cnc(-c2ccc(F)cc2)c1-c1ccnc(Oc2ccccc2)n1`, the IC50 was under 50 µM.

For the origin of these results see the Kinase Knowledgebase extract (Sharma et al. 2016).
